Legend:
[1] = biological target: recombinant soluble guanylate cyclase (sGC), haem-containing (Rattus norvegicus (Rat), UniProt P20595); assay: Stimulation of recombinant soluble guanylate cyclase (sGC) in vitro, haem-containing enzyme; assay type: biochemical; details: for Stimulation (x-fold) of haem-containing sGC, basal: n = 5
Description: Hoenicka, E. M. Becker, H. Apeler, T. Sirichoke. H. Schroeder, R. Gerzer and J.-P. Stasch, “Purified soluble guanylyl cyclase expressed in a baculovirus/Sf9 system: Stimulation by YC-1, nitric oxide, and […]”, J. Mol. Med. 77 (1999), 14-23. The haem-free guanylate cyclase is obtained by adding Tween 20 to the sample buffer (0.5% in the final concentration).
(§1) The activation of sGC by a test substance is reported as x-fold stimulation of the basal activity.

[2] = biological target: recombinant soluble guanylate cyclase (sGC), haem-free (Rattus norvegicus (Rat), UniProt P20595); assay: Stimulation of recombinant soluble guanylate cyclase (sGC) in vitro, haem-free enzyme; assay type: biochemical; details: n = 5
Method: Investigations on the stimulation of recombinant soluble guanylate cyclase (sGC) by the compounds according to the invention with and without sodium nitroprusside, and with and without the haem-dependent sGC inhibitor 1H-1,2,4-oxadiazolo[4,3a]quinoxalin-1-one (ODQ), are carried out by the method described in detail in the following reference: M. Hoenicka, E. M. Becker, H. Apeler, T. Sirichoke. H. Schroeder, R. Gerzer and J.-P. Stasch, “Purified soluble guanylyl cyclase expressed in a baculovirus/Sf9 system: Stimulation by YC-1, nitric oxide, and […]”, J. Mol. Med. 77 (1999), 14-23. The haem-free guanylate cyclase is obtained by adding Tween 20 to the sample buffer (0.5% in the final concentration).
as §1

[3] = test system: recombinant guanylate cyclase reporter cell line (CHO reporter cell); assay: Action at a recombinant guanylate cyclase reporter cell line; assay type: cell-based; details: CHO reporter cell in vitro; read-out: MEC (minimum effective concentration), sGC-activating activity in the CHO reporter cell
Method: The cellular action of the compounds according to the invention is determined at a recombinant guanylate cyclase reporter cell line, as described in F. Wunder et al., Anal. Biochem. 339, 104-112 (2005).

[4] = biological target: soluble guanylate cyclase (sGC) (Rattus norvegicus (Rat), UniProt P20595); assay: Stimulation of sGC enzyme activity (PPi detection, luciferase); assay type: biochemical; details: sGC enzyme in vitro
Method: Soluble guanylate cyclase (sGC) converts on stimulation GTP into cGMP and pyrophosphate (PPi). PPi is detected with the aid of the assay described below. The signal produced in the assay increases as the reaction progresses and serves as a measure of the sGC enzyme activity under the given stimulation.
To carry out the assay, 29 μl of enzyme solution [0-10 nM soluble guanylate cyclase (prepared according to Hönicka et al, J. Mol. Med. 77, 14-23 (1999)) in 50 mM TEA, 2 mM MgC2, 0.1% BSA (fraction V), 0.005% Brij®, pH 7.5] are initially introduced into a microplate, and 1 μl of the substance to be tested (as a serially diluted solution in DMSO) is added. The mixture is incubated at room temperature for 10 min. Then 20 μl of detection mix [1.2 nM Firefly Luciferase (Photinus pyralis luciferase, Promega), 29 μM dehydroluciferin (prepared according to Bitler & McElroy, Arch. Biochem. Biophys. 72, 358 (1957)), 122 μM luciferin (Promega), 153 μM ATP (Sigma) and 0.4 mM DTT (Sigma) in 50 mM TEA, 2 mM MgCl2, 0.1% BSA (fraction V), 0.005% Brij®, pH 7.5] are added. The enzyme reaction is started by adding 20 μl of substrate solution [1.25 mM guanosine 5′-triphosphate (Sigma) in 50 mM TEA, 2 mM MgC2, 0.1% BSA (fraction V), 0.005% Brij®, pH 7.5] and measured continuously in a luminometer. The extent of the stimulation by the substance to be tested can be determined relative to the signal of the unstimulated reaction.
The activation of haem-free guanylate cyclase is examined by addition of 25 μM of 1H-1,2,4-oxadiazolo[4,3-a]quinoxalin-1-one (ODQ) to the enzyme solution and subsequent incubation for 30 minutes and compared to the stimulation of the native enzyme.

saphenous artery rings = assay: Vasorelaxant effect in vitro (phenylephrine-contracted saphenous artery rings); assay type: cell-based; details: Oryctolagus cuniculus; rabbit saphenous artery rings, phenylephrine-induced contraction
Method: Rabbits are anaesthetized and sacrificed by intravenous injection of thiopental sodium (about 50 mg/kg) and exsanguinated. The saphenous artery is removed and divided into rings 3 mm wide. The rings are mounted singly on in each case a pair of triangular hooks open at the end and made of 0.3 mm-thick special wire (Remanium®). Each ring is placed under an initial tension in 5 ml organ baths with Krebs-Henseleit solution which is at 37° C., is gassed with carbogen and has the following composition: NaCl 119 mM; KCl 4.8 mM; CaCl2×2 H2O 1 mM; MgSO4×7 H2O 1.4 mM; KH2PO4 1.2 mM; NaHCO3 25 mM; glucose 10 mM; bovine serum albumin 0.001%. The force of contraction is detected with Statham UC2 cells, amplified and digitized via A/D converters (DAS-1802 HC, Keithley Instruments, Munich) and recorded in parallel on chart recorders. Contractions are induced by addition of phenylephrine.
After several (generally 4) control cycles, the substance to be investigated is added in each further run in increasing dosage, and the level of the contraction achieved under the influence of the test substance is compared with the level of the contraction reached in the last preceding run. The concentration necessary to reduce the contraction reached in the preceding control by 50% is calculated from this (IC50). The standard application volume is 5 μl. The proportion of DMSO in the bath solution corresponds to 0.1%.

recombinant soluble guanylate cyclase (sGC), haem-containing, sequence (P20595 whole entry): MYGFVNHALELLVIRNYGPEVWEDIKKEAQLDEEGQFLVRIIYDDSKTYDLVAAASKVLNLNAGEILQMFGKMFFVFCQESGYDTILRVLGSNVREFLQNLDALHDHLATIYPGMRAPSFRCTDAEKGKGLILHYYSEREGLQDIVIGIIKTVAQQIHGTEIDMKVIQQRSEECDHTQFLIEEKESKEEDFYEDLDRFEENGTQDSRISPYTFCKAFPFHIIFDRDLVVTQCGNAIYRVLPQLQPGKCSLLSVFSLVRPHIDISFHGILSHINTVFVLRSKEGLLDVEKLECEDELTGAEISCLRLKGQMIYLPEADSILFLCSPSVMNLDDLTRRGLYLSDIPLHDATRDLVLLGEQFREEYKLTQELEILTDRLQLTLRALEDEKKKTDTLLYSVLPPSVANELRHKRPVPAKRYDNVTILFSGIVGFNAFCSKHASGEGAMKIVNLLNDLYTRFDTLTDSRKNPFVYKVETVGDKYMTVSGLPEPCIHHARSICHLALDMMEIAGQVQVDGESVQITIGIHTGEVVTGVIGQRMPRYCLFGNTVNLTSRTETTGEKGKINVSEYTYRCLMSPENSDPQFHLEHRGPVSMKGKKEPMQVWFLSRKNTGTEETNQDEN
recombinant soluble guanylate cyclase (sGC), haem-containing, sequence (P19686 whole entry partner): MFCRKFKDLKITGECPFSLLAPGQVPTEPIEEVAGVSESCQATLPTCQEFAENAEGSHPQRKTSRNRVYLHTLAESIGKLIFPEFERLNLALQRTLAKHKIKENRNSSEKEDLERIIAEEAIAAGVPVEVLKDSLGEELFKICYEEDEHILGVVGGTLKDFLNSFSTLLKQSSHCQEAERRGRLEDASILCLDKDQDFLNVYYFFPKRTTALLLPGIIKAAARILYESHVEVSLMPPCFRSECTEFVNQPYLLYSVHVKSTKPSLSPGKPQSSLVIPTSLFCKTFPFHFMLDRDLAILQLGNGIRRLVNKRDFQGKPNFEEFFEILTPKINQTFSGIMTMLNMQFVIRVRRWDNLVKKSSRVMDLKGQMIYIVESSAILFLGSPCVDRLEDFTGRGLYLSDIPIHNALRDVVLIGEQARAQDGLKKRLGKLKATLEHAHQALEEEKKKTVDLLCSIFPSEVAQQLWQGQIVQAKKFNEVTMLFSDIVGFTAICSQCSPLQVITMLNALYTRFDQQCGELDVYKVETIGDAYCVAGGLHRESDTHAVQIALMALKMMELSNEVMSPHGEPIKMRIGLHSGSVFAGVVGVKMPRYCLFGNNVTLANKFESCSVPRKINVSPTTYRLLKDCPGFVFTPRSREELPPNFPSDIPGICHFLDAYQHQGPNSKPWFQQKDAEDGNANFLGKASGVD
recombinant soluble guanylate cyclase (sGC), haem-free, sequence (P20595 whole entry): as the sequence (P20595 whole entry) above
recombinant soluble guanylate cyclase (sGC), haem-free, sequence (P19686 whole entry partner): as the sequence (P19686 whole entry partner) above
soluble guanylate cyclase (sGC), sequence (P20595 whole entry): as the sequence (P20595 whole entry) above
soluble guanylate cyclase (sGC), sequence (P19686 whole entry partner): as the sequence (P19686 whole entry partner) above

C[C@H]([C@H](C(=O)Nc1cc(C(CC(=O)O)C2CC2)ccc1Cl)c1ccc(Cl)cc1)C(F)(F)F (single isomer, unassigned; (+)) [Example 22]
Stimulation (x-fold) of haem-containing sGC, +0.01 μM DEA/NO ([1]; 0.01 μM Example 22 + 0.01 μM DEA/NO): 4.4 ± 1.3 x-fold | Stimulation (x-fold) of haem-containing sGC, +10 μM ODQ ([1]; 0.01 μM Example 22 + 10 μM ODQ): 5.7 ± 1.6 x-fold | Stimulation (x-fold) of haem-containing sGC, basal ([1]; 0.01 μM Example 22): 1.6 ± 0.3 x-fold | Stimulation (x-fold) of haem-containing sGC, +0.01 μM DEA/NO ([1]; 0.1 μM Example 22 + 0.01 μM DEA/NO): 3.4 ± 0.9 x-fold | Stimulation (x-fold) of haem-containing sGC, +10 μM ODQ ([1]; 0.1 μM Example 22 + 10 μM ODQ): 6.1 ± 1.7 x-fold | Stimulation (x-fold) of haem-containing sGC, basal ([1]; 0.1 μM Example 22): 1.6 ± 0.5 x-fold | Stimulation (x-fold) of haem-containing sGC, +0.01 μM DEA/NO ([1]; 1.0 μM Example 22 + 0.01 μM DEA/NO): 4.4 ± 1.4 x-fold | Stimulation (x-fold) of haem-containing sGC, +10 μM ODQ ([1]; 1.0 μM Example 22 + 10 μM ODQ): 8.4 ± 2.2 x-fold | Stimulation (x-fold) of haem-containing sGC, basal ([1]; 1.0 μM Example 22): 2.4 ± 1.0 x-fold | Stimulation (x-fold) of haem-containing sGC, +0.01 μM DEA/NO ([1]; 10 μM Example 22 + 0.01 μM DEA/NO): 7.8 ± 2.5 x-fold | Stimulation (x-fold) of haem-containing sGC, +10 μM ODQ ([1]; 10 μM Example 22 + 10 μM ODQ): 18.3 ± 5.4 x-fold | Stimulation (x-fold) of haem-containing sGC, basal ([1]; 10 μM Example 22): 4.9 ± 1.2 x-fold | Combination with the NO donor DEA/NO: synergistic effect on sGC stimulation ([1]; haem-containing sGC, combination with DEA/NO): no synergistic effect | Effect of the haem-dependent sGC inhibitor ODQ on the sGC activation ([1]; haem-containing sGC, with ODQ): not blocked | Stimulation (x-fold) of haem-free sGC, basal ([2]; 0.01 μM Example 22): 1.2 ± 0.1 x-fold | Stimulation (x-fold) of haem-free sGC, basal ([2]; 0.1 μM Example 22): 1.6 ± 0.5 x-fold | Stimulation (x-fold) of haem-free sGC, basal ([2]; 1.0 μM Example 22): 4.9 ± 1.5 x-fold | Stimulation (x-fold) of haem-free sGC, basal ([2]; 10 μM Example 22): 14.2 ± 2.0 x-fold | minimal effective concentration [3]: 0.0018 µM | MEC (minimum effective concentration), activating action at the sGC enzyme [4]: 2.4 nM | EC50 ([4]; read-out: EC50 (concentration at 50% of maximum efficacy), activating action at the sGC enzyme): 68 nM | IC50 (saphenous artery rings): 137 nM

Reference: patent US10023528B2, “Branched 3-phenylpropionic acid derivatives and their use” (BAYER INTELLECTUAL PROPERTY GMBH, priority 2011, dated 2018)
